The values below come from patent US5061720A, “Substituted-4-thiazolidinone derivatives” (A. H. Robins Company, Inc., priority 1989, dated 1991).

By IC50 is commonly meant the concentration that inhibits the measured activity by half.

The structures appear in SMILES notation.

One assay has as its target T1, cyclooxygenase (Ovis aries, UniProt P05979).
T1 construct: Lipid-depleted Sheep Seminal Vesicle Microsome Suspension; from tissue; host or cells: sheep seminal vesicle microsomes (lipid-depleted powder, detergent solubilized)
T1 sequence (P05979 25-600): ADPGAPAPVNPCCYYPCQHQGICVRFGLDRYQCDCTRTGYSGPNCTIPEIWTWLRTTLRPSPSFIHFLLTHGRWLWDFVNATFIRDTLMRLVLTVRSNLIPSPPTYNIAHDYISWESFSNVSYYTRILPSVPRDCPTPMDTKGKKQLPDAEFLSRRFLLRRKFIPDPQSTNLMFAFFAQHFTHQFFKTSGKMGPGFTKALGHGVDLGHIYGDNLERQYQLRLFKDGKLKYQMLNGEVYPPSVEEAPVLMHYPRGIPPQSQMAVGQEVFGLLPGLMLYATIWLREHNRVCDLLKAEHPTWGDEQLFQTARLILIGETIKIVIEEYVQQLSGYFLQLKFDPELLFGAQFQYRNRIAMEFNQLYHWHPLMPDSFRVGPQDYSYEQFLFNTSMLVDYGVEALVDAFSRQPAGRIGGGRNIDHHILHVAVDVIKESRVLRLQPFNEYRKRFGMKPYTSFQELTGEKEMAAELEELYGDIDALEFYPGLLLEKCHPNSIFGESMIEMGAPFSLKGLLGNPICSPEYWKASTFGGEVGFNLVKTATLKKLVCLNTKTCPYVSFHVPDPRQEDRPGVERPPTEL
The experiment in a line: Cyclooxygenase Assay (polarigraphic oxygen consumption, lipid-depleted sheep seminal vesicle microsomes). The assay is classed as biochemical. Conditions: 30° C., 2 min incubation, ammonium arachidonate substrate. The procedure: Cyclooxygenase activity was determined polarigraphically with detergent solubilized, lipid-depleted sheep seminal vesical microsomes. Addition of test articles that inhibit cyclooxygenase, including reference standards, cause a decrease in the rate of oxygen consumption in the reactions. Cyclooxygenase activity is determined using the following procedures:
I. Preparation of Test Materials
1. Lipid-Depleted Sheep Seminal Vesicle Microsomal Powder. This preparation follows the procedure of G. Graff et al. J. Biol. Chem. 253, 7662 (1978).
2. Ammonium Arachidonate Solution. A 250 μL aliquot of 20.0 mM arachidonic acid in absolute ethanol and a 50-μL aliquot of concentrated ammonium hydroxide is placed into a test tube. The solvent and excess ammonium hydroxide is evaporated under a stream of nitrogen at room temperature. The ammonium arachidonate residue is dissolved in 500 μL of 100 mM 2-amino-2-hydroxymethyl-1,3-propanediol hydrochloride (Tris HCl) buffer (pH 8.0) by using a vortex mixer. The final concentration of ammonium arachidonate (working solution) is 10.0 mM.
3. Enzyme Buffer 100 mM Tris HCl (pH 8.0) containing 2.0 mM phenol, 5.0 mM ethylenediaminetetraacetic acid (EDTA), 5.0 mM diethyldithiocarbamic acid and 1.0% Tween 20.
4. Reaction Buffer 100 mM Tris HCl (pH 8.0) containing 2.0 μM hematin and 1.0 mM phenol (prepared daily).
5. Detergent Solubilized Lipid-depleted Sheep Seminal Vesicle Microsome Suspension. Ten mg (solid) of lipid-depleted microsomal powder from sheep seminal vesicles is suspended in 1.0 mL of enzyme buffer and kept at 4° C. until used.
6. Solutions of Test (Formula I compound) or Reference Articles. Test and reference articles are dissolved in the reaction buffer prepared in 4) or a solvent that will not interfere with cyclooxygenase activity, e.g., dimethylsulfoxide, ethanol or acetone.
II. Cyclooxygenase Inhibition Assay
Three mL of the reaction buffer and 20 μL of the microsomal enzyme suspension are placed in a Yellow Springs Instrument (YSI) oxygen chamber where the temperature is maintained at 30° C. by means of a temperature controlled circulating water bath. Aliquots of the solutions containing ≤[…] of Formula I compound (test article) or reference article [see 6) above] are added to the YSI chamber and incubated for 2 minutes. The reaction is initiated by addition of 30 μL of the 10 mM ammonium arachidonate solution and cyclooxygenase activity determined polarigraphically using an oxygen electrode by measuring the rate of oxygen consumption [Cook et al., Anal. Biochem 96 341-51 (1979) and Cook and Lands, Can. J. Biochem. 53, 1220-1231 (1975)].
Test, reference, and control articles were evaluated in triplicate. Cyclooxygenase activity was determined from the slope (mv/unit time) of the recorder tracing with 1 mV being proportional to a 2.34 μM change in oxygen concentration.
The IC50 (concentration of test or reference article that inhibits the reaction by 50%) was calculated from cumulative plots relating the extent of inhibition of cyclooxygenase activity in control group assays to increasing concentrations of test article. Where no inhibition exists, the IC50 is expressed as greater than the highest concentration of the drug tested.

The target of another assay is T2, 5-lipoxygenase (Homo sapiens, UniProt P09917).
T2 construct: Polymorphonuclear leukocytes were obtained from whole human blood; endogenous in cells; host or cells: human polymorphonuclear leukocytes from whole blood, stimulated with A23187
T2 sequence (P09917 1-674): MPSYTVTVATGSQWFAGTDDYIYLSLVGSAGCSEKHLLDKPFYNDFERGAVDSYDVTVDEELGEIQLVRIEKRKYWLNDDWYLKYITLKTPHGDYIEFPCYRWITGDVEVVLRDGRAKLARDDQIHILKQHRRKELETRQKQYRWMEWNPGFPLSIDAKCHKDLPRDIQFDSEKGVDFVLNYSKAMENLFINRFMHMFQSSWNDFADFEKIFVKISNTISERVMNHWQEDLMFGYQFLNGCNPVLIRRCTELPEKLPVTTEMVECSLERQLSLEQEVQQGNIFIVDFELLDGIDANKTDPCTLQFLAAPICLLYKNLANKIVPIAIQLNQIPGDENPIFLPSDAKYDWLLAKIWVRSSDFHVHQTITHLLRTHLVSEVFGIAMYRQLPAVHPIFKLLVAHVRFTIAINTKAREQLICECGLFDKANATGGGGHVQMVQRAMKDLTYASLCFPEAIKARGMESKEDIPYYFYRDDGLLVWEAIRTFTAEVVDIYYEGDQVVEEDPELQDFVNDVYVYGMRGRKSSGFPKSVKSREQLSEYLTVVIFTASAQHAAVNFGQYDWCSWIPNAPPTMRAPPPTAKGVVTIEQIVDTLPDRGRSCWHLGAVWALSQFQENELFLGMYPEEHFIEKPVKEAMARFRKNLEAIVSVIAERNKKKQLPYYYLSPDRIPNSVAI
The experiment in a line: 5-Lipoxygenase Assay (production of 5-HETE from arachidonic acid in polymorphonuclear leukocytes stimulated by A23187). The class given is cell-based. The conditions noted are these: inhibition of production of 5-HETE, human PMN cells, calcium ionophore A23187, 37° C. The procedure:
The production of 5-HETE from arachidonic acid in human polymorphonuclear leukocytes stimulated by the calcium ionophore A23187 (Calbiochemicals) was measured by reverse phase high pressure liquid chromatography. This procedure is a modification of the procedure of Sun and McGuire, PROSTAGLANDINS, 26, 211-221 (1983). Addition of substances to the test system that inhibit 5-lipoxygenases cause a decrease in the production of 5-HETE and is thus determined in comparison to reference and control articles also added to the reaction system.
Polymorphonuclear leukocytes were obtained from whole human blood by the procedure of Skoog and Beck, BLOOD, 11, 436-454 (1956). […] The tube is incubated for an additional 10 min at 37° C. and the incubations terminated by addition of 1.5 mL of acetone and cooling to 0° C. 13-Hydroxyoctadecatrienoic acid (13-HODT) (5 μL of 0.2 mM methanolic solution) is added for an internal reference standard. The tube is stored at -20° C. under argon for 4-18 hr. Centrifugation at 1000×g for 10 min causes protein precipitate to form a pellet. The acetone layer is evaporated under a stream of nitrogen and the resultant lipid residue containing the arachidonic acid metabolites and 13-HODT is dissolved in 0.5 mL of methanol and stored at -20° C. until analyzed by high-pressure liquid chromatography (HPLC).
For analysis, a 150-μL aliquot of the methanol solution is evaporated under a stream of argon. The residue is reconstituted with 100 μL of a 1:1 methanol-water mixture and sonified for 15-20 seconds and the mixture analyzed by HPLC (C18 reversed phase Econophere column, methanol:water:acetic acid 79:25:0.2 v/v/v used for elution). Test, reference, and control articles are evaluated in duplicate. The inhibition is reported as that concentration which will inhibit by 50% the production of 5-HETE.

The subject of the next assay is guinea pig skin. Kind of assay: UV-Erythema in Guinea Pigs. The assay is classed as in vivo. Also noted: key: +: active; -: inactive. Conditions: topical, 50 μL of cream with 1.0 mg test article per 1 g, immediately after UV exposure; active = composite score significantly lower than control, Dunnett's t-test p≤0.05. The procedure:
I. Preparation of Formulation (cream)
All drugs tested were prepared by thoroughly incorporating 1.0 mg of the test article into 1 g of a pH 7.0 cream vehicle of the following composition.
methyl glucose sesquistearate 1.6%
methyl gluceth-20 sesquistearate 2.4%
emulsifying wax, N.F. 5.0%
mineral oil (heavy), U.S.P. 1.0%
white petrolatum, U.S.P. 5.0%
stearic acid, U.S.P. 2.5%
sodium benzoate, N.F. 0.1%
magnesium aluminum silicate 1.5%
deionized water, pH 7.0 64.8%
The preparations were packed into 1-cc plastic syringes.
II. Pharmacological Assay
The backs of female, English short hair guinea pigs (250-500 g) were shaved and depilated with Nair®. Control and treated groups each consisted of 5 animals, and selection of the animals and the control and treatment groups was achieved by random procedures. A rubber sheet with three one-half inch holes spaced one-half inch apart was draped over backs of the guinea pigs. The guinea pigs were then exposed to ultraviolet (UV) light (Hanovia Model 10, ~650-800 μW/cm^2) for 15 seconds by holding the animals against the light source. Fifty μL of the test drug or reference drug (indomethacin or bromfenac) preparation were immediately rubbed onto the skin, either on the area exposed to UV light or to an area adjacent to the UV light exposed skin. The degree of erythema for each exposed area was scored at various times following exposure according to the following scale:
1=slight redness with faint outline
2=moderate to marked redness with distinct outline
The score was totaled for each guinea pig (maximum score is 6). The Dunnett's t-test was used to determine significant (p≤0.05) differences from the control (placebo treated) group.

`CCCC[C@@H]1S[C@@H](c2cccc(C(=O)c3ccccc3)c2)N(c2ccc(O)cc2)C1=O` (relative stereo) [Example 22, 2-(3-Benzoylphenyl)-5-butyl-3-(4-hydroxyphenyl)-4-thiazolidinone]: the IC50 against cyclooxygenase is 2.2 µM; on 5-lipoxygenase it was 6.4 µM.

Regarding `CCCC[C@@H]1S[C@H](c2cccc(Oc3ccccc3)c2)N(c2ccc(O)cc2)C1=O` (relative stereo) [Example 3, 5-Butyl-3-(4-hydroxyphenyl)-2-(3-phenoxyphenyl)-4-thiazolidinone], the values for the IC50 on cyclooxygenase and at 5-lipoxygenase were 8 µM and 5 µM, respectively.

Regarding `CCCC[C@@H]1S[C@@H](c2cccc(Oc3ccccc3)c2)N(CCCCc2ccc(C(=O)OCC)cc2)C1=O` (relative stereo) [Example 5, 4-[4-[5-Butyl-4-oxo-2-(3-phenoxyphenyl)-3-thiazolidinyl]butyl]benzoic acid ethyl ester], the half-maximal inhibitory concentration (IC50) on cyclooxygenase came out at 0.07 µM.

`CCCCC1SC(c2cccc(Oc3ccccc3)c2)N(CCc2ccccn2)C1=O` (stereo not shown) [Example 18, 5-Butyl-2-(3-phenoxyphenyl)-3-[2-(2-pyridinyl)ethyl]-4-thiazolidinone]: the IC50 was 0.12 µM at cyclooxygenase and 7.8 µM at 5-lipoxygenase.

As for `CCCCC1SC(c2cccc(Oc3ccccc3)c2)N(CCCOc2ccc(C(=O)O)cc2)C1=O` (stereo not shown) [Example 30, 4-[3-[5-Butyl-4-oxo-2-(3-phenoxyphenyl)-3-thiazolidinyl]propoxy]benzoic acid], the IC50 is 1.6 µM at cyclooxygenase and 3.5 µM at 5-lipoxygenase.

Regarding `CCCCC1SC(c2cccc(Oc3ccccc3)c2)N(CCCCCCC(=O)OCC)C1=O` (stereo not shown) [Example 55, 5-Butyl-4-oxo-2-(3-phenoxyphenyl)-3-thiazolidineheptanoic acid ethyl ester], the values for the IC50 at cyclooxygenase and at 5-lipoxygenase were 1 µM and about 10 µM, respectively.

With `CCCC[C@@H]1S[C@H](c2cccc(Oc3ccccc3)c2)N(CCCCc2ccc(C(=O)OCC)cc2)C1=O` (relative stereo) [Example 6, 4-[4-[5-Butyl-4-oxo-2-(3-phenoxyphenyl)-3-thiazolidinyl]butyl]benzoic acid ethyl ester], at cyclooxygenase, the midpoint of inhibition, the IC50, lay at 0.05 µM.

Consider `CCCCC1SC(c2cccc(Oc3ccccc3)c2)N(CCc2ccc(O)cc2)C1=O` (stereo not shown) [Example 59, 5-Butyl-3-[2-(4-hydroxyphenyl)ethyl]-2-(3-phenoxyphenyl)-4-thiazolidinone], for which the “U.V. erythema (+ = active, - = inactive)” value in the assay on guinea pig skin is listed as “+”.
